Test results from US10544106B2, “Certain chemical entities, compositions, and methods” (NeuPharma, Inc., priority 2016, dated 2020).

Biological target: BTK (Homo sapiens (Human), UniProt Q06187)
Assay: Z'-LYTE kinase inhibition assay against BTK
Type: biochemical
Settings: for inhibition at 0.1 µM: compound at 100 nM, ATP concentration at Km; for IC50: series of concentrations, GraphPad Prism 5
Protocol: Inhibitory activities of compounds against BTK, EGFR T790M, EGFR L858R, and EGFR L858R/T790M were measured using Z′-LYTE® Method from Life Technologies as briefly described in the following.
Test Compounds are screened in 1% DMSO (final) in the well. For 10 point titrations, 3-fold serial dilutions are conducted from the starting concentration. All ATP Solutions are diluted to a 4× working concentration in Kinase Buffer (50 mM HEPES pH 7.5, 0.01% BRIJ-35, 10 mM MgCl2, 1 mM EGTA). Peptide/Kinase Mixtures are diluted to a 2× working concentration in the appropriate Kinase Buffers as described below. • (i) Peptide/Kinase Mixtures for measurement of EGFR (ErbB1) L858R: • The 2×EGFR (ErbB1) L858R/Tyr 04 mixture is prepared in 50 mM HEPES pH 7.5, 0.01% BRIJ-35, 10 mM MgCl2, 4 mM MnCl2. 1 mM EGTA, 2 mM DTT. The final 10 μL Kinase Reaction consists of 0.2-1.68 ng EGFR (ErbB1) L858R and 2 μM Tyr 04 in 50 mM HEPES pH 7.5, 0.01% BRIJ-35, 10 mM MgCl2, 2 mM MnCl2, 1 mM EGTA, 1 mM DTT. After the 1 hour Kinase Reaction incubation, 5 μL of a 1:64 dilution of Development Reagent B is added. • (ii) Peptide/Kinase Mixtures for measurement of EGFR (ErbB1) T790M: The 2×EGFR (ErbB1) T790M/Tyr 04 mixture is prepared in 50 mM HEPES pH 6.5, 0.01% BRIJ-35, 10 mM MgCl2, 1 mM EGTA, 0.02% NaN3. The final 10 μL Kinase Reaction consists of 3.9-30.2 ng EGFR (ErbB1) T790M and 2 μM Tyr 04 in 50 mM HEPES pH 7.0, 0.01% BRIJ-35, 10 mM MgCl2, 1 mM EGTA, 0.01% NaN3. After the 1 hour Kinase Reaction incubation, 5 μL of a 1:64 dilution of Development Reagent B is added. • (iii) Peptide/Kinase Mixtures for measurement of EGFR (ErbB1) L858R/T790M: The 2×EGFR (ErbB1) T790M L858R/Tyr 04 mixture is prepared in 50 mM HEPES pH 6.5, 0.01% BRIJ-35, 10 mM MgCl2, 1 mM EGTA, 0.02% NaN3. The final 10 μL Kinase Reaction consists of 0.38-4.22 ng EGFR (ErbB1) T790M L858R and 2 μM Tyr 04 in 50 mM HEPES pH 7.0, 0.01% BRIJ-35, 10 mM MgCl2, 1 mM EGTA, 0.01% NaN3. After the 1 hour Kinase Reaction incubation, 5 μL of a 1:64 dilution of Development Reagent B is added. • (iv) Peptide/Kinase Mixtures for measurement of BTK: The 2×BTK/Tyr 01 mixture is prepared in 50 mM HEPES pH 7.5, 0.010/BRIJ-35, 10 mM MgCl2, 1 mM EGTA. The final 10 μL Kinase Reaction consists of 1.04-10.4 ng BTK and 2 μM Tyr 01 in 50 mM HEPES pH 7.5, 0.01% BRIJ-35, 10 mM MgCl2, 1 mM EGTA. After the 1 hour Kinase Reaction incubation, 5 μL of a 1:256 dilution of Development Reagent B is added.
Reaction starts by 30-second shaking of mixture consisting of 2.5 μL 4× test compound, 5 μL 2× kinase reaction mixture and 2.5 μL 4×ATP Solution on Bar-coded Corning, low volume NBS, black 384-well plate (Corning Cat. #3676). Then the mixture is incubated for 60-minute at room temperature for the kinase reaction, followed by addition of 5 μL of a 1:1024 dilution of development reagent A and 30-second plate shake. The mixture is then incubated for another 60-minute at room temperature for development reaction. Finally fluorescence is read by plate reader.
The Z′-LYTE assay was carried out with ATP concentration at Km. The scale utilized in Tables 2-6 is as follows: ++ more than 50% inhibition and + less than 50% inhibition.
To determine IC50 of a compound against a kinase, a series of concentrations of the compound were tested for the inhibition. IC50 was calculated by plotting the concentration of compound vs the percentage of inhibition in treated wells using GraphPad Prism 5. […] The scale utilized in Table 7 is as follows: ++ less than 100 nM and + greater than 100 nM.

BTK, sequence (Q06187 whole entry): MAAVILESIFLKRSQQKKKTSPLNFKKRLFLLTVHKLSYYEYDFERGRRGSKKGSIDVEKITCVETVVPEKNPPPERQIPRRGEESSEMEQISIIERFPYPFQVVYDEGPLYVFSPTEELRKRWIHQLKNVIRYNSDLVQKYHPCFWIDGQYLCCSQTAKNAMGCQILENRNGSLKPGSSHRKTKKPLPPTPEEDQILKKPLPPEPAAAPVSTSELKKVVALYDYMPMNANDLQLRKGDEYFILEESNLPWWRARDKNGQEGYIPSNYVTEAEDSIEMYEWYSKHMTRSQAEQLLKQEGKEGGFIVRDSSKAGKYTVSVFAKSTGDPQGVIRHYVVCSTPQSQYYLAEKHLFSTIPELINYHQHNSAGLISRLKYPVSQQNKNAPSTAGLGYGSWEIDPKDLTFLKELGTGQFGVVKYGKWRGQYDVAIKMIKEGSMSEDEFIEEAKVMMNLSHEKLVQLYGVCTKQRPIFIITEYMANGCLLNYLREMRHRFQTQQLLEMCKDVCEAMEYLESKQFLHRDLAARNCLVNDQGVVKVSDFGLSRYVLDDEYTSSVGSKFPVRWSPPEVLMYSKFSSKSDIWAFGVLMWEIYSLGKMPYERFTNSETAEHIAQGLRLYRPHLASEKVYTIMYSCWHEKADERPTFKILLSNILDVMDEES

`C=CC(=O)N1CCC(c2cc(-c3ccc(C(=O)Nc4ccccc4)cc3)n3cnccc23)C1` (stereo not drawn) [C054, 4-(5-(1-acryloylpyrrolidin-3-yl)pyrrolo[1,2-c]pyrimidin-7-yl)-N-phenylbenzamide] was tested, and the inhibition at 0.1 µM was less than 50%.

Work on `C=CC(=O)N1CCC(c2cc(-c3ccc(C(=O)Nc4ccnnc4)cc3)cc3cncnc23)C1` (stereo not drawn) [C147, 4-(8-(1-acryloylpyrrolidin-3-yl)quinazolin-6-yl)-N-(pyridazin-4-yl)benzamide] yielded an inhibition at 0.1 µM of less than 50%.

With `C=CC(=O)Nc1cccc(-c2cc(-c3ccc(Oc4cc(C(F)(F)F)ccn4)cc3Cl)cc3cncnc23)c1` [C088, N-(3-(6-(2-chloro-4-((4-(trifluoromethyl)pyridin-2-yl)oxy)phenyl)quinazolin-8-yl)phenyl)acrylamide] the inhibition at 0.1 µM was greater than 50%.

For `C=CC(=O)Nc1cccc(-n2c(-c3ccccc3)nc3cncnc32)c1` [C014, N-(3-(8-phenyl-9H-purin-9-yl)phenyl)acrylamide], the inhibition at 0.1 µM was less than 50%.

For `C=CC(=O)N1CCC(c2nc(-c3ccc(Oc4ncccc4F)c(OC)c3)n3c(N)nccc23)C1` (stereo not drawn) [C233, 1-(3-(5-amino-3-(4-((3-fluoropyridin-2-yl)oxy)-3-methoxyphenyl)imidazo[1,5-c]pyrimidin-1-yl)pyrrolidin-1-yl)prop-2-en-1-one], the IC50 was less than 100 nM.

Work on `C=CC(=O)N1CCC(c2cc(-c3ccc(Oc4ccccc4)cc3)c(N)c3cncnc23)C1` (stereo not drawn) [C192, 1-(3-(5-amino-6-(4-phenoxyphenyl)quinazolin-8-yl)pyrrolidin-1-yl)prop-2-en-1-one] yielded an inhibition at 0.1 µM of less than 50% and an IC50 greater than 100 nM.

In the case of `C=CC(=O)Nc1cccc(-c2cc(-c3ccc(Oc4ccccn4)cc3F)c(N)c3cncnc23)c1` [C173, N-(3-(5-amino-6-(2-fluoro-4-(pyridin-2-yloxy)phenyl)quinazolin-8-yl)phenyl)acrylamide], the inhibition at 0.1 µM is reported as less than 50%.

For `C=CC(=O)Nc1cccc(-c2cc(-c3ccc(Oc4ccccc4)cc3)cc3cncnc23)c1` [C023, N-(3-(6-(4-phenoxyphenyl)quinazolin-8-yl)phenyl)acrylamide], the inhibition at 0.1 µM was greater than 50% and the IC50 was less than 100 nM.

For `C=CC(=O)Nc1cccc(-c2cc(-c3ccc(C(=O)Nc4ccccc4)nc3)cc3cnc(N)nc23)c1` [C059, 5-(8-(3-acrylamidophenyl)-2-aminoquinazolin-6-yl)-N-phenylpicolinamide], the inhibition at 0.1 µM was less than 50%.

`C=CC(=O)N1CCC(c2cc(-c3ccccc3F)cc3cncnc23)C1` (stereo not drawn) [C084, 1-(3-(6-(2-fluorophenyl)quinazolin-8-yl)pyrrolidin-1-yl)prop-2-en-1-one] gave an inhibition at 0.1 µM of less than 50%.

`C=CC(=O)Nc1cccc(-c2cc(-c3ccc(C(=O)N4CCOCC4)cc3)cc3cncnc23)c1` [C101, N-(3-(6-(4-(morpholine-4-carbonyl)phenyl)quinazolin-8-yl)phenyl)acrylamide] showed an inhibition at 0.1 µM greater than 50%.

Work on `C=CC(=O)Nc1cccc(-c2cc(-c3ccc(Oc4cc(C(F)(F)F)ccn4)cc3F)c(N)c3cncnc23)c1` [C187, N-(3-(5-amino-6-(2-fluoro-4-((4-(trifluoromethyl)pyridin-2-yl)oxy)phenyl)quinazolin-8-yl)phenyl)acrylamide] yielded an inhibition at 0.1 µM of less than 50% and an IC50 greater than 100 nM.

`C=CC(=O)N1CCC(c2cc(-c3ccc(C(=O)Nc4cc(OC)ccn4)cc3)n3cnccc23)C1` (stereo not drawn) [C162, 4-(5-(1-acryloylpyrrolidin-3-yl)pyrrolo[1,2-c]pyrimidin-7-yl)-N-(4-methoxypyridin-2-yl)benzamide] was tested, and the inhibition at 0.1 µM was less than 50%.

Work on `C=CC(=O)Nc1cccc(-c2cc(-c3ccc(C(=O)Nc4cccc(C(F)(F)F)c4)nc3)cc3cncnc23)c1` [C071, 5-(8-(3-acrylamidophenyl)quinazolin-6-yl)-N-(3-(trifluoromethyl)phenyl)picolinamide] yielded an inhibition at 0.1 µM greater than 50%.

`C=CC(=O)N1CCC(c2cc(-c3ccc(Oc4cc(C(F)(F)F)ccn4)cc3)cc3cnc(N)nc23)C1` (stereo not drawn) [C104, 1-(3-(2-amino-6-(4-((4-(trifluoromethyl)pyridin-2-yl)oxy)phenyl)quinazolin-8-yl)pyrrolidin-1-yl)prop-2-en-1-one] gave an inhibition at 0.1 µM of less than 50%.

`C=CC(=O)Nc1cccc(-c2cc(-c3cncc(Cl)c3)cc3cnc(N)nc23)c1` [C103, N-(3-(2-amino-6-(5-chloropyridin-3-yl)quinazolin-8-yl)phenyl)acrylamide] was tested, and the inhibition at 0.1 µM was greater than 50% and the IC50 was less than 100 nM.

With `C=CC(=O)Nc1cccc(-c2cc(-c3ccc(Oc4cccc(C(F)(F)F)c4)nc3)cc3cncnc23)c1` [C081, N-(3-(6-(6-(3-(trifluoromethyl)phenoxy)pyridin-3-yl)quinazolin-8-yl)phenyl)acrylamide] the inhibition at 0.1 µM was greater than 50%.

`C=CC(=O)N1CCC(c2cc(-c3ccc(Oc4ncccc4F)cc3F)cc3cncnc23)C1` (stereo not drawn) [C108, 1-(3-(6-(2-fluoro-4-((3-fluoropyridin-2-yl)oxy)phenyl)quinazolin-8-yl)pyrrolidin-1-yl)prop-2-en-1-one] showed an inhibition at 0.1 µM greater than 50%.

`C=CC(=O)N1CCC(c2cc(-c3ccc(C(=O)Nc4cccc(C(F)(F)F)c4)cc3)cc3cncnc23)C1` (stereo not drawn) [C068, 4-(8-(1-acryloylpyrrolidin-3-yl)quinazolin-6-yl)-N-(3-(trifluoromethyl)phenyl)benzamide] gave an inhibition at 0.1 µM of less than 50%.

`C=CC(=O)Nc1cccc(-c2cc(-c3ccc(C(=O)Nc4ncccc4F)cc3)c(N)c3cncnc23)c1` [C211, 4-(8-(3-acrylamidophenyl)-5-aminoquinazolin-6-yl)-N-(3-fluoropyridin-2-yl)benzamide] gave an inhibition at 0.1 µM of less than 50%.

In the case of `C=CC(=O)Nc1cccc(-c2cc(-c3cncc(OC)c3)cc3cnc(N)nc23)c1` [C110, N-(3-(2-amino-6-(5-methoxypyridin-3-yl)quinazolin-8-yl)phenyl)acrylamide], the inhibition at 0.1 µM is reported as greater than 50%.

`CC#CC(=O)N1CCC(c2nc(-c3ccc(Oc4ccccn4)c(OC)c3)n3c(N)nccc23)C1` (stereo not drawn) [C213, 1-(3-(5-amino-3-(3-methoxy-4-(pyridin-2-yloxy)phenyl)imidazo[1,5-c]pyrimidin-1-yl)pyrrolidin-1-yl)but-2-yn-1-one] showed an inhibition at 0.1 µM greater than 50%.

`C=CC(=O)Nc1cccc(-c2cc(-c3cccc(Nc4ccccc4)c3)cc3c(N)ncnc23)c1` [C022, N-(3-(4-amino-6-(3-(phenylamino)phenyl)quinazolin-8-yl)phenyl)acrylamide] showed an inhibition at 0.1 µM of less than 50%.

`C=CC(=O)Nc1cccc(-c2cc(-c3ccc(Oc4cccc(F)c4)nc3)cc3cncnc23)c1` [C086, N-(3-(6-(6-(3-fluorophenoxy)pyridin-3-yl)quinazolin-8-yl)phenyl)acrylamide] gave an inhibition at 0.1 µM greater than 50% and an IC50 of less than 100 nM.

Molecule `C=CC(=O)Nc1cccc(-c2cc(-c3ccc(C(=O)Nc4ccccc4)cc3)cc3cncnc23)c1` [C053, 4-(8-(3-acrylamidophenyl)quinazolin-6-yl)-N-phenylbenzamide] has an inhibition at 0.1 µM greater than 50% and an IC50 of less than 100 nM.

`C=CC(=O)N1CCCC(c2cc(-c3ccc(Oc4ccccc4)cc3)cc3cnc(N)nc23)C1` (stereo not drawn) [C028, 1-(3-(2-amino-6-(4-phenoxyphenyl)quinazolin-8-yl)piperidin-1-yl)prop-2-en-1-one] showed an inhibition at 0.1 µM greater than 50% and an IC50 of less than 100 nM.
